Where a name gives a salt, the structure may show the parent alone.
Each molecule was assayed against T1, human EP4 (hEP4) receptor (Homo sapiens, UniProt P35408) (assay: In vitro human EP4 functional antagonist activity using BRET biosensors (cAMP EPAC biosensor, TCS2510 stimulation)). Conditions: antagonist activity vs EC60 TCS2510, hEP4 in HEK-293 T cells.
T1 construct: expressed in transfected cells; host or cells: HEK-293 T cells, transient co-transfection with polyethylenimine
T1 sequence (P35408 whole entry): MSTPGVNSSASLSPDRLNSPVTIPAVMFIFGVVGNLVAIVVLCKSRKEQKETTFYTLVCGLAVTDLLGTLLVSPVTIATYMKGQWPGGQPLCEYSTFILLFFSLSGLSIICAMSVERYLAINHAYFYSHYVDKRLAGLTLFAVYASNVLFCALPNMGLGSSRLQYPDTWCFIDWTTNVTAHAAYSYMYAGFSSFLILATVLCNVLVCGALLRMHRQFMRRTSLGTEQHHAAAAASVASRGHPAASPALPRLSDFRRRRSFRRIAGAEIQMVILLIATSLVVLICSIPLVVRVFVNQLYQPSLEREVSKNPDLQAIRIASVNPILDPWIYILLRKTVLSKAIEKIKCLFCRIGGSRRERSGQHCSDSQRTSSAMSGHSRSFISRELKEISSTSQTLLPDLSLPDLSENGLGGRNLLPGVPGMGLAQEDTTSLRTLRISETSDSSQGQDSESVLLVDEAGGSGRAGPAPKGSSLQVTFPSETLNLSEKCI
Type: cell-based
Description: Examples of the present invention were tested successively for their agonist and antagonist activities on human EP4 (hEP4) receptor transiently over-expressed in HEK-293 T cells. […] The assay used to measure compound activity is based on the BRET technology. The unimolecular cAMP biosensor used to detect intracellular cAMP levels following GPCR stimulation consists of the EPAC protein fused to N- and C-terminal of Luciferase and GFP respectively.
Cell Culture and Transfection: HEK-293 T cells are maintained in Dulbecco's Modified Eagle's Medium supplemented with 10% Foetal Calf Serum, 1% Penicillin/Streptomycin at 37° C./5% CO2. Cells are co-transfected using polyethylenimine (25 kDa linear) with two DNA plasmids encoding hEP4, EPAC fused to luciferase (BRET donor) and to GFP (BRET acceptor). After transfection, cells are cultured (40,000 cells per well) for 48 h at 37° C./5% CO2.
BRET assay: Receptor activity is detected by changes in BRET signal. On the day of the assay, cells are rinsed and incubated in assay buffer (1.8 mM CaCl2, 1 mM MgCl2, 2.7 mM KCl, 137 mM NaCl, 0.4 mM NaH2PO4, 5.5 mM D-Glucose, 11.9 mM NaHCO3, 25 mM Hepes). Then, plates are equilibrated 1 h at 22° C. before adding compounds. Compounds and luciferase substrate are added to the cells using an automated device (Freedom Evo®, Tecan) and BRET readings are collected on EnVision (PerkinElmer) with specific filters (410 nm BW 80 nm, 515 nm BW 30 nm). Agonist and antagonist activities of compounds are consecutively evaluated on the same cell plate. Agonist activity is first measured after 5 min incubation with compound alone on the cells. Then, cells are stimulated by an EC60 TCS2510 concentration and luminescence is recorded for additional 10 min. EC60 TCS2510 concentration is the concentration giving 60% of the maximal TCS2510 response. Agonist or antagonist activities are evaluated in comparison to basal signals evoked by assay buffer or EC60 TCS2510 alone, respectively.
For IC50 determination, a dose-response test is performed using 10 concentrations (ranging over 4.5 logs) of each compound. Dose-response curves are fitted using the sigmoidal dose-response (variable slope) analysis in GraphPad Prism software (GraphPad Software) and IC50 of antagonist activity is calculated. Dose-response experiments are performed in duplicate, in two independent experiments. IC50 values are categorized as following: A: IC50<0.1 μM; B: IC50<1 μM.
With `C[C@H](NC(=O)C1(c2ccnc(OCC3CCCCC3)c2)CCOCC1)c1ccc(C(=O)O)cc1` [Example 116, 4-[(1S)-1-[[4-[2-(Cyclohexylmethoxy)-4-pyridyl]tetrahydropyran-4-carbonyl]amino]ethyl]benzoic acid] the IC50 was less than 1000 nM.
For `C[C@H](NC(=O)C1(N(C)CCOc2ccccc2)CCCOC1)c1ccc(C(=O)O)cc1` (stereo partly drawn) [Example 73, 4-[(1S)-1-[[3-[Methyl(2-phenoxyethyl)amino]tetrahydropyran-3-carbonyl]amino]ethyl]benzoic acid, hydrochloride], the IC50 was less than 1000 nM.
`C[C@H](NC(=O)C1(NCC2CCCCC2)CCOCC1)c1ccc(C(=O)O)cc1` [Example 21, 4-[(1S)-1-[[4-(Cyclohexylmethylamino)tetrahydropyran-4-carbonyl]amino]ethyl]benzoic acid, hydrochloride] was tested, and the IC50 was less than 1000 nM.
With `C[C@H](NC(=O)C(C)(C)N1CC[C@@H](Oc2cccc(C(F)(F)F)c2)C1)c1ccc(S(C)(=O)=O)cc1` [Example 204, 2-Methyl-N—((S)-1-(4-(methylsulfonyl)phenyl)ethyl)-2-((R)-3-(3-(trifluoromethyl)phenoxy)pyrrolidin-1-yl)propanamide, hydrochloride] the IC50 was less than 1000 nM.
In the case of `C[C@H](NC(=O)C(C)(C)N1CC[C@@H](Oc2cccc(C(F)(F)F)c2)C1)c1ccc(S(N)(=O)=O)cc1` [Example 203, 2-Methyl-N—((S)-1-(4-sulfamoylphenyl)ethyl)-2-((R)-3-(3-(trifluoromethyl)phenoxy)pyrrolidin-1-yl)propanamide, hydrochloride], the IC50 is reported as less than 1000 nM.
For `Cc1ccc([C@H](C)NC(=O)C2(N3CC[C@@H](Oc4cccc(C(F)(F)F)c4)C3)CCOCC2)cc1` [Example 193, N—((S)-1-(4-Methylphenyl)ethyl)-4-((R)-3-(3-(trifluoromethyl)phenoxy)pyrrolidin-1-yl)tetrahydro-2H-pyran-4-carboxamide, hydrochloride], the IC50 was less than 1000 nM.
With `C[C@H](NC(=O)C1(c2ccc(OCc3ccccc3)cc2)CCCC1)c1ccc(C(=O)O)cc1` [Example 109, 4-[(1S)-1-[[1-(4-Benzyloxyphenyl)cyclopentanecarbonyl]amino]ethyl]benzoic acid] the IC50 was less than 100 nM.
`Cc1ccccc1OCCN(C)C1(C(=O)NC2(c3ccc(C(=O)O)cc3)CC2)CCOCC1` [Example 36, 4-[1-[[4-[2-(2-Methylphenoxy)ethyl-methyl-amino]tetrahydropyran-4-carbonyl]amino]cyclopropyl]benzoic acid, hydrochloride] showed an IC50 of less than 100 nM.
`CN(CCOc1ccccc1F)C1(C(=O)NC2(c3ccc(C(=O)O)cc3)CC2)CCOCC1` [Example 33, 4-[1-[[4-[2-(2-Fluorophenoxy)ethyl-methyl-amino]tetrahydropyran-4-carbonyl]amino]cyclopropyl]benzoic acid, hydrochloride] was tested, and the IC50 was less than 100 nM.
`C[C@H](NC(=O)C1(N(C)CCOc2ccccc2)CCOCC1)c1ccc(C(=O)O)cc1` [Example 2, 4-[(1S)-1-[[4-[Methyl(2-phenoxyethyl)amino]tetrahydropyran-4-carbonyl]amino]ethyl]benzoic acid, hydrochloride] showed an IC50 of less than 100 nM.
Molecule `C[C@H](NC(=O)C1(N2CC[C@@H](Oc3cccc(F)c3)C2)CCOCC1)c1ccc(C(=O)O)cc1` [Example 142, 4-[(1S)-1-[[4-[(3R)-3-(3-Fluorophenoxy)pyrrolidin-1-yl]tetrahydropyran-4-carbonyl]amino]ethyl]benzoic acid, hydrochloride] has an IC50 of less than 100 nM.
With `C[C@H](NC(=O)C1(N2CC[C@@H](Oc3cccc(C(F)(F)F)c3)C2)CCC(F)(F)CC1)c1ccc(C(=O)O)cc1` [Example 163, 4-[(1S)-1-[[1-[(3R)-3-[3-(Trifluoromethyl)phenoxy]pyrrolidin-1-yl]-4,4-difluorocyclohexane-1-carbonyl]amino]ethyl]benzoic acid, hydrochloride] the IC50 was less than 100 nM.
`CN(CCOc1ccccc1)C1(C(=O)NC2(c3ccc(C(=O)O)nc3)CC2)CCOCC1` [Example 53, 5-[1-[[4-[Methyl(2-phenoxyethyl)amino]tetrahydropyran-4-carbonyl]amino]cyclopropyl]pyridine-2-carboxylic acid, hydrochloride] showed an IC50 of less than 1000 nM.
`C[C@H](NC(=O)C1(N2CC[C@@H](Oc3cccc(Cl)c3)C2)CCC1)c1ccc(C(=O)O)cc1` [Example 159, 4-[(1S)-1-[[1-[(3R)-3-(3-Chlorophenoxy)pyrrolidin-1-yl]cyclobutane-1-carbonyl]amino]ethyl]benzoic acid, hydrochloride] was tested, and the IC50 was less than 100 nM.
Work on `CNC(=O)c1ccc([C@H](C)NC(=O)C2(N(C)CCOc3ccccc3)CCOCC2)cc1` [Example 4, N-[(1S)-1-[4-(Methylcarbamoyl)phenyl]ethyl]-4-[methyl(2-phenoxyethyl)amino]tetrahydropyran-4-carboxamide] yielded an IC50 of less than 1000 nM.
For `C[C@H](NC(=O)C1(N2CCC[C@H](Oc3cccc(Cl)c3)C2)CCOCC1)c1ccc(C(=O)O)cc1` [Example 134, 4-[(1S)-1-[[4-[(3S)-3-(3-Chlorophenoxy)-1-piperidyl]tetrahydropyran-4-carbonyl]amino]ethyl]benzoic acid, hydrochloride], the IC50 was less than 1000 nM.
Work on `C[C@H](NC(=O)C1(c2ccc(OCCC3CCCCC3)cc2)CCCC1)c1ccc(C(=O)O)cc1` [Example 110, 4-[(1S)-1-[[1-[4-(2-Cyclohexylethoxy)phenyl]cyclopentanecarbonyl]amino]ethyl]benzoic acid] yielded an IC50 of less than 100 nM.
`C[C@H](NC(=O)C1(c2cccc(OCC3CCCCCC3)c2)CCOCC1)c1ccc(C(=O)O)cc1` [Example 103, 4-[(1S)-1-[[4-[3-(Cycloheptylmethoxy)phenyl]tetrahydropyran-4-carbonyl]amino]ethyl]benzoic acid] was tested, and the IC50 was less than 100 nM.
`O=C(O)c1ccc(C2(NC(=O)C3(N4CC[C@@H](Oc5cccc(OC(F)(F)F)c5)C4)CCOCC3)CC2)cc1` [Example 147, 4-[1-[[4-[(3R)-3-[3-(Trifluoromethoxy)phenoxy]pyrrolidin-1-yl]tetrahydropyran-4-carbonyl]amino]cyclopropyl]benzoic acid, hydrochloride] was tested, and the IC50 was less than 100 nM.
Molecule `O=C(O)c1ccc(C2(NC(=O)C3(NCCOc4cccc(Cl)c4)CCOCC3)CC2)cc1` [Example 28, 4-[1-[[4-[2-(3-Chlorophenoxy)ethylamino]tetrahydropyran-4-carbonyl]amino]cyclopropyl]benzoic acid, hydrochloride] has an IC50 of less than 100 nM.
`O=C(O)c1ccc(C2(NC(=O)C3(N4CC[C@@H](Oc5cccc(C(F)(F)F)c5)C4)CCOCC3)CC2)cc1` [Example 145, 4-[1-[[4-[(3R)-3-[3-(Trifluoromethyl)phenoxy]pyrrolidin-1-yl]tetrahydropyran-4-carbonyl]amino]cyclopropyl]benzoic acid, hydrochloride] was tested, and the IC50 was less than 100 nM.
In the case of `Cc1cccc([C@H](C)NC(=O)C2(N3CC[C@@H](Oc4cccc(C(F)(F)F)c4)C3)CCOCC2)c1` [Example 194, N—((S)-1-(3-Methylphenyl)ethyl)-4-((R)-3-(3-(trifluoromethyl)phenoxy)pyrrolidin-1-yl)tetrahydro-2H-pyran-4-carboxamide, hydrochloride], the IC50 is reported as less than 1000 nM.
With `C[C@H](NC(=O)C1(NCCCc2ccccc2)CCOCC1)c1ccc(C(=O)O)cc1` [Example 18, 4-[(1S)-1-[[4-(3-Phenylpropylamino)tetrahydropyran-4-carbonyl]amino]ethyl]benzoic acid, hydrochloride] the IC50 was less than 1000 nM.
For `C[C@H](NC(=O)C1(CCCOc2ccccc2)CCOCC1)c1ccc(C(=O)O)cc1` [Example 81, 4-[(1S)-1-[[4-(3-Phenoxypropyl)tetrahydropyran-4-carbonyl]amino]ethy]benzoic Acid], the IC50 was less than 100 nM.
`C[C@H](NC(=O)C1(N2CC[C@@H](Oc3cccc(C(F)(F)F)c3)C2)CCOCC1)c1ccccc1Cl` [Example 192, N—((S)-1-(2-Chlorophenyl)ethyl)-4-((R)-3-(3-(trifluoromethyl)phenoxy)pyrrolidin-1-yl)tetrahydro-2H-pyran-4-carboxamide, hydrochloride] showed an IC50 of less than 1000 nM.
Work on `COc1ccccc1OCCN(C)C1(C(=O)NC2(c3ccc(C(=O)O)cc3)CC2)CCOCC1` [Example 39, 4-[1-[[4-[2-(2-Methoxyphenoxy)ethyl-methyl-amino]tetrahydropyran-4-carbonyl]amino]cyclopropyl]benzoic acid, hydrochloride] yielded an IC50 of less than 1000 nM.
Work on `C[C@H](NC(=O)C1(c2cccc(OCC3CCCCC3)n2)CCOCC1)c1ccc(C(=O)O)cc1` [Example 115, 4-[(1S)-1-[[4-[6-(Cyclohexylmethoxy)-2-pyridyl]tetrahydropyran-4-carbonyl]amino]ethyl]benzoic acid] yielded an IC50 of less than 1000 nM.

From patent US12527779B2, “Prostaglandin E2 (PGE2) EP4 receptor antagonists” (Domain Therapeutics, priority 2019, dated 2026)
